# Columns and labels:
# Assay in all cases: Test B pre-/postemergence plant response
# Type in all cases: in vivo
# [1] = tested on: velvetleaf (Abutilon theophrasti)
# Method in brief: (§1)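 Compound in solvent + surfactant applied pre-em (loam/sand) or post-em (plants 2–18 cm, peat medium); greenhouse hold 13–15 days; visual 0–100 control score.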
# [2] = tested on: yellow nutsedge (Cyperus esculentus)
# Method in brief: as §1
# [3] = tested on: large crabgrass (Digitaria sanguinalis)
# Method in brief: as §1
# [4] = tested on: johnsongrass (Sorghum halepense)
# Method in brief: as §1
# [5] = tested on: green foxtail (Setaria viridis)
# Method in brief: as §1
# [6] = tested on: lambsquarters (Chenopodium album)
# Method in brief: as §1
# [7] = tested on: downy bromegrass (Bromus tectorum)
# Method in brief: as §1
# [8] = tested on: woolly cupgrass (Eriochloa villosa)
# Method in brief: as §1
# kochia (Kochia scoparia) = tested on: kochia (Kochia scoparia)
# Method in brief: as §1
# [9] = tested on: giant foxtail (Setaria faberii)
# Method in brief: as §1
# [10] = tested on: pigweed (Amaranthus retroflexus)
# Method in brief: as §1
# [11] = tested on: wheat (Triticum aestivum)
# Method in brief: as §1
# [12] = tested on: goosegrass (Eleusine indica)
# Method in brief: as §1
# [13] = 250 g ai/ha, Preemergence, 0 to 100 scale
# [14] = Postemergence, 62 g ai/ha, scale 0 (no effect) to 100 (complete control), 13 to 15 days
# [15] = Postemergence, 125 g ai/ha, visual rating after 13 to 15 days, scale 0 (no effect) to 100 (complete control)
# [16] = Preemergence, 31 g ai/ha, scale 0 to 100 (0 no effect, 100 complete control)
# [17] = Preemergence, 125 g ai/ha, 0 to 100 scale
# [18] = Postemergence, 31 g ai/ha, scale 0 to 100 (0 no effect, 100 complete control)
# [19] = Postemergence, 250 g ai/ha, scale 0 to 100
# [20] = Preemergence, 62 g ai/ha, scale 0 to 100 (0 no effect, 100 complete control)
# [21] = 31 g ai/ha, postemergence, scale 0 to 100, 0 is no effect, 100 is complete control
# [22] = Postemergence, 250 g ai/ha, scale 0 to 100 (0 no effect, 100 complete control)
# [23] = Preemergence, 125 g ai/ha, scale 0 to 100, 0 no effect, 100 complete control
smiles,measurement,setting,value
Cc1cccc(Cl)c1-n1c(-c2ccccc2)ncc(C(=O)C2=C(O)CCCC2=O)c1=O [Compound 46],"Plant response rating, Velvetleaf",[1]; [13],65
same,"Plant response rating, Velvetleaf",[1]; [14],80
same,"Plant response rating, Velvetleaf",[1]; [15],85
same,"Plant response rating, Velvetleaf",[1]; [16],0
same,Velvetleaf plant response rating,[1]; [17],55
same,"Plant response rating, Nutsedge, Yellow",[2]; [13],90
same,"Plant response rating, Nutsedge, Yellow",[2]; [14],70
same,"Plant response rating, Nutsedge, Yellow",[2]; [15],70
same,"Plant response rating, Nutsedge, Yellow",[2]; [16],25
same,"Nutsedge, Yellow plant response rating",[2]; [17],80
same,"Plant response rating, Crabgrass, Large",[3]; [13],98
same,"Plant response rating, Crabgrass, Large",[3]; [18],60
same,"Plant response rating, Crabgrass, Large",[3]; [14],65
same,"Plant response rating, Crabgrass, Large",[3]; [15],75
same,"Crabgrass, Large plant response rating",[3]; [19],75
same,"Plant response rating, Crabgrass, Large",[3]; [16],45
same,"Plant response rating, Crabgrass, Large",[3]; [20],75
same,"Crabgrass, Large plant response rating",[3]; [17],85
same,"Plant response rating, Johnsongrass",[4]; [13],70
same,"Plant response rating, Johnsongrass",[4]; [14],50
same,"Plant response rating, Johnsongrass",[4]; [15],70
same,Johnsongrass plant response rating,[4]; [19],75
same,"Plant response rating, Johnsongrass",[4]; [16],0
same,"Plant response rating, Johnsongrass",[4]; [20],10
same,Johnsongrass plant response rating,[4]; [17],45
same,"Plant response rating, Foxtail, Green",[5]; [13],10
same,"Plant response rating, Foxtail, Green",[5]; [18],45
same,"Plant response rating, Foxtail, Green",[5]; [14],60
same,"Plant response rating, Foxtail, Green",[5]; [15],85
same,"Foxtail, Green plant response rating",[5]; [19],85
same,"Plant response rating, Foxtail, Green",[5]; [16],0
same,"Plant response rating, Foxtail, Green",[5]; [20],0
same,"Foxtail, Green plant response rating",[5]; [17],5
same,"Plant response rating, Lambsquarters",[6]; [13],100
same,"Plant response rating, Lambsquarters",[6]; [14],85
same,"Plant response rating, Lambsquarters",[6]; [15],90
same,Lambsquarters plant response rating,[6]; [19],95
same,"Plant response rating, Lambsquarters",[6]; [16],90
same,"Plant response rating, Lambsquarters",[6]; [20],90
same,Lambsquarters plant response rating,[6]; [17],95
same,"Plant response rating, Bromegrass, Downy",[7]; [13],0
same,"Plant response rating, Bromegrass, Downy",[7]; [18],0
same,"Plant response rating, Bromegrass, Downy",[7]; [14],5
same,"Plant response rating, Bromegrass, Downy",[7]; [15],10
same,"Bromegrass, Downy plant response rating",[7]; [19],25
same,"Plant response rating, Bromegrass, Downy",[7]; [16],0
same,"Plant response rating, Bromegrass, Downy",[7]; [20],0
same,"Bromegrass, Downy plant response rating",[7]; [17],0
same,"Plant response rating, Cupgrass, Woolly",[8]; [13],60
same,"Plant response rating, Cupgrass, Woolly",[8]; [18],10
same,"Plant response rating, Cupgrass, Woolly",[8]; [14],20
same,"Plant response rating, Cupgrass, Woolly",[8]; [15],25
same,"Cupgrass, Woolly plant response rating",[8]; [19],45
same,"Plant response rating, Cupgrass, Woolly",[8]; [16],10
same,"Plant response rating, Cupgrass, Woolly",[8]; [20],45
same,"Cupgrass, Woolly plant response rating",[8]; [17],50
same,"Plant response rating, Kochia",kochia (Kochia scoparia); [14],0
same,"Plant response rating, Kochia",kochia (Kochia scoparia); [15],20
same,Kochia plant response rating,kochia (Kochia scoparia); [19],30
same,"Plant response rating, Foxtail, Giant",[9]; [13],25
same,"Plant response rating, Foxtail, Giant",[9]; [18],70
same,"Plant response rating, Foxtail, Giant",[9]; [14],80
same,"Plant response rating, Foxtail, Giant",[9]; [15],80
same,"Foxtail, Giant plant response rating",[9]; [19],85
same,"Plant response rating, Foxtail, Giant",[9]; [16],0
same,"Plant response rating, Foxtail, Giant",[9]; [20],0
same,"Foxtail, Giant plant response rating",[9]; [17],15
same,"Plant response rating, Pigweed",[10]; [13],100
same,"Plant response rating, Pigweed",[10]; [14],75
same,"Plant response rating, Pigweed",[10]; [15],80
same,"Plant response rating, Pigweed",[10]; [16],85
same,Pigweed plant response rating,[10]; [17],95
same,"Plant response rating, Wheat",[11]; [13],0
same,"Plant response rating, Wheat",[11]; [14],0
same,"Plant response rating, Wheat",[11]; [15],0
same,"Plant response rating, Wheat",[11]; [16],0
same,Wheat plant response rating,[11]; [17],0
same,"Plant response rating, Goosegrass",[12]; [13],98
same,"Plant response rating, Goosegrass",[12]; [14],75
same,"Plant response rating, Goosegrass",[12]; [15],80
same,Goosegrass plant response rating,[12]; [19],80
same,"Plant response rating, Goosegrass",[12]; [16],85
same,Goosegrass plant response rating,[12]; [17],98
Cc1cc(-n2c(-c3ccccc3)ncc(C(=O)C3=C(O)CCCC3=O)c2=O)ccc1F [Compound 53],"Plant response rating, Velvetleaf",[1]; [21],85
same,"Plant response rating, Velvetleaf",[1]; [14],85
same,"Plant response rating, Velvetleaf",[1]; [15],95
same,"Plant response rating, Velvetleaf",[1]; [22],98
same,"Plant response rating, Velvetleaf",[1]; [16],80
same,"Plant response rating, Velvetleaf",[1]; [20],98
same,"Plant response rating, Velvetleaf",[1]; [23],98
same,"Plant response rating, Nutsedge, Yellow",[2]; [21],20
same,"Plant response rating, Nutsedge, Yellow",[2]; [14],65
same,"Plant response rating, Nutsedge, Yellow",[2]; [15],75
same,"Plant response rating, Nutsedge, Yellow",[2]; [22],75
same,"Plant response rating, Nutsedge, Yellow",[2]; [16],65
same,"Plant response rating, Nutsedge, Yellow",[2]; [20],80
same,"Plant response rating, Nutsedge, Yellow",[2]; [23],90
same,"Plant response rating, Crabgrass, Large",[3]; [21],85
same,"Plant response rating, Crabgrass, Large",[3]; [13],100
same,"Plant response rating, Crabgrass, Large",[3]; [14],95
same,"Plant response rating, Crabgrass, Large",[3]; [15],95
same,"Plant response rating, Crabgrass, Large",[3]; [22],100
same,"Plant response rating, Crabgrass, Large",[3]; [16],75
same,"Plant response rating, Crabgrass, Large",[3]; [20],100
same,"Plant response rating, Crabgrass, Large",[3]; [23],100
same,"Plant response rating, Johnsongrass",[4]; [21],55
same,"Plant response rating, Johnsongrass",[4]; [13],75
same,"Plant response rating, Johnsongrass",[4]; [14],95
same,"Plant response rating, Johnsongrass",[4]; [15],95
same,"Plant response rating, Johnsongrass",[4]; [22],100
same,"Plant response rating, Johnsongrass",[4]; [16],10
same,"Plant response rating, Johnsongrass",[4]; [20],55
same,"Plant response rating, Johnsongrass",[4]; [23],60
same,"Plant response rating, Foxtail, Green",[5]; [21],95
same,"Plant response rating, Foxtail, Green",[5]; [13],98
same,"Plant response rating, Foxtail, Green",[5]; [14],100
same,"Plant response rating, Foxtail, Green",[5]; [15],100
same,"Plant response rating, Foxtail, Green",[5]; [22],100
same,"Plant response rating, Foxtail, Green",[5]; [16],60
same,"Plant response rating, Foxtail, Green",[5]; [20],60
same,"Plant response rating, Foxtail, Green",[5]; [23],98
same,"Plant response rating, Lambsquarters",[6]; [21],90
same,"Plant response rating, Lambsquarters",[6]; [13],100
same,"Plant response rating, Lambsquarters",[6]; [14],95
same,"Plant response rating, Lambsquarters",[6]; [15],98
same,"Plant response rating, Lambsquarters",[6]; [22],98
same,"Plant response rating, Lambsquarters",[6]; [16],98
same,"Plant response rating, Lambsquarters",[6]; [20],100
same,"Plant response rating, Lambsquarters",[6]; [23],100
same,"Plant response rating, Bromegrass, Downy",[7]; [21],35
same,"Plant response rating, Bromegrass, Downy",[7]; [13],30
same,"Plant response rating, Bromegrass, Downy",[7]; [14],50
same,"Plant response rating, Bromegrass, Downy",[7]; [15],55
same,"Plant response rating, Bromegrass, Downy",[7]; [22],60
same,"Plant response rating, Bromegrass, Downy",[7]; [16],0
same,"Plant response rating, Bromegrass, Downy",[7]; [20],0
same,"Plant response rating, Bromegrass, Downy",[7]; [23],5
same,"Plant response rating, Cupgrass, Woolly",[8]; [21],65
same,"Plant response rating, Cupgrass, Woolly",[8]; [13],95
same,"Plant response rating, Cupgrass, Woolly",[8]; [14],90
same,"Plant response rating, Cupgrass, Woolly",[8]; [15],95
same,"Plant response rating, Cupgrass, Woolly",[8]; [22],98
same,"Plant response rating, Cupgrass, Woolly",[8]; [16],0
same,"Plant response rating, Cupgrass, Woolly",[8]; [20],55
same,"Plant response rating, Cupgrass, Woolly",[8]; [23],85
same,"Plant response rating, Kochia",kochia (Kochia scoparia); [21],45
same,"Plant response rating, Kochia",kochia (Kochia scoparia); [14],65
same,"Plant response rating, Kochia",kochia (Kochia scoparia); [15],75
same,"Plant response rating, Kochia",kochia (Kochia scoparia); [22],80
same,"Plant response rating, Foxtail, Giant",[9]; [21],80
same,"Plant response rating, Foxtail, Giant",[9]; [13],100
same,"Plant response rating, Foxtail, Giant",[9]; [14],85
same,"Plant response rating, Foxtail, Giant",[9]; [15],90
same,"Plant response rating, Foxtail, Giant",[9]; [22],95
same,"Plant response rating, Foxtail, Giant",[9]; [16],5
same,"Plant response rating, Foxtail, Giant",[9]; [20],85
same,"Plant response rating, Foxtail, Giant",[9]; [23],100
same,"Plant response rating, Pigweed",[10]; [21],85
same,"Plant response rating, Pigweed",[10]; [14],95
same,"Plant response rating, Pigweed",[10]; [15],100
same,"Plant response rating, Pigweed",[10]; [22],100
same,"Plant response rating, Pigweed",[10]; [16],95
same,"Plant response rating, Pigweed",[10]; [20],98
same,"Plant response rating, Pigweed",[10]; [23],100
same,"Plant response rating, Wheat",[11]; [21],20
same,"Plant response rating, Wheat",[11]; [14],25
same,"Plant response rating, Wheat",[11]; [15],30
same,"Plant response rating, Wheat",[11]; [22],50
same,"Plant response rating, Wheat",[11]; [16],0
same,"Plant response rating, Wheat",[11]; [20],0
same,"Plant response rating, Wheat",[11]; [23],0
same,"Plant response rating, Goosegrass",[12]; [21],75
same,"Plant response rating, Goosegrass",[12]; [13],100
same,"Plant response rating, Goosegrass",[12]; [14],80
same,"Plant response rating, Goosegrass",[12]; [15],80
same,"Plant response rating, Goosegrass",[12]; [22],85
same,"Plant response rating, Goosegrass",[12]; [16],98
same,"Plant response rating, Goosegrass",[12]; [20],100
same,"Plant response rating, Goosegrass",[12]; [23],100

# From US8952024B2, “Herbicidal pyrimidone derivatives” (E I du Pont de Nemours and Company, priority 2009, dated 2015)
